9 molecules from patent publication US5126291A, “Sulfur inhibitors of phospholipase A-Z” (American Cyanamid Company, priority 1990, dated 1992) can be followed below.

One experiment addresses T1, porcine pancreatic PLA2 (Sus scrofa, UniProt P00592).
T1 construct: purchased Sigma
Nature of the experiment: Inhibition of porcine pancreatic phospholipase A2 (PLA2), radiochemical assay. The format is biochemical. Conditions: for Percent Inhibition at 10 ug/ml / inhibition at 10 µg/mL: 10 ug/ml inhibitor; for inhibition at 10 µg/mL: read-out: Percent Inhibition at 10 ug/ml. As to the method:
4-((3-(Dimethylamino)propyl)thio)-1-(hexadecyloxy)-2-butanol, acetate was prepared by the method of Example 64 as a 1 mg/ml solution in methanol. Inhibition of phospholipase A2 activity was measured by a radiochemical assay in which labeled synthetic phosphatidylcholine substrate is converted by porcine pancreatic PLA2 to free radiolabeled arachidonate and lyso phosphatidyl choline. In the assay, radiolabeled arachidonate is extracted from the reaction mixture and separated from unreacted substrate by column or thin layer chromatography. The radioactivity (cpm) in samples is quantified in liquids scintillation counting.
[…] The combined substrate was then redissolved in 0.1M Tris-HCl buffer, pH 9.0, containing 10 mM calcium chloride and 10 mM sodium taurocholate detergent. The mixture was sonicated for 10 to 30 seconds in a Kontes Sonifier to yield a homogeneous dispersion. The "mixed" micellar substrate was clear. An aliquot was reserved for a cpm count (total substrate). The total reaction volume was 500 ul; siliconized glassware or plasticware was used throughout. Porcine pancreatic phospholipase A2 enzyme (Sigma, sp. act. […] U/mg protein and preferably 900 U/mg protein) was diluted 1:750 or 1:1000 in 0.1M Tris-HCl buffer, pH 9.0 (without Ca^++ and detergent).
The test compound was diluted appropriately in phosphate buffered saline. 10 ul aliquots of the stock solution were either incubated with enzyme in buffer in the absence of Ca^++ detergent or were blown under N2 stream with the substrate prior to the addition of buffer. The substrate and buffer were kept on ice until the reaction was started by the addition of enzyme (preincubated with test compound or diluent, or fresh enzyme) to the substrate dispersion in buffer.
Samples (600 ul) were extracted with 3 ml of CHC13 /MeOH solution (2:1) for thin layer chromatography. The phases were separated by gentle centrifugation at 700 rpm for 5 minutes. The organic phase was recovered for either thin layer or column chromatography separation.
For thin layer chromatography, labeled arachidonate extracted with CHC13 /MeOH solution was separated on Silica Gel G TLC plates (Analtech). Twenty ul of a 2 mg/ml internal standard solution of arachidonic acid (Sigma) was combined with 2 to 3 ml of the organic phase. The entire mixture was dried under nitrogen and redissolved in 50 ul of CHC13 /MeOH solution (2:1). A 20 ul sample was counted in 10 ml of Beckman Redi-solv Scintillation fluid HP and spotted in Silica Gel G plates. The solvent system used to develop the plate was a CHC13 /MeOH/13.5N NH3 /H2 O solution (70:30:4:1). Thin layer chromatography plates were developed in a glass chamber for 1 to 11/2 hours, air dried, and the spots visualized in an iodine vapor chamber. Standards of phosphatidyl/choline, lyso phosphatidyl choline, and arachidonic acid (Sigma) were made up as 2 mg/ml stocks in CHC13 /MeOH solution (2:1) and were spotted on the thin layer chromatography plates. Spots corresponding to arachidonate and phospholipid were scraped and counted in 10 ml Beckman Redi-Solv HP scintillation fluid.
For column chromatography, samples were extracted with hexane/diether solution and the upper organic phase recovered. An aliquot was applied to a Silicar CC4 (Maleinckrodt) column. Columns were prepared using 1 ml of 1:1 slurry of Silicar CC4 (Maleinckrodt) in hexane/ether solution in a Pasteur pipet (approximately 2 cm height). Columns were rinsed with 500 ul of hexane/ether solution before adding the sample (300-600 ul) to the columns. Columns were eluted with a total of 6 ml of hexane/ether solution. The 6 ml sample was counted in 10 ml of Beckman Redi-Solv HP scintillation fluid. Thin layer chromatography analysis confirmed that the radioactivity eluted was arachidonate.
3-((3-(Acetyloxy)-4-(hexadecyloxy)-butyl)-thio)-N,N,N-trimethyl-1-propanaminium, iodide was prepared by the method of Example 65 as a 1 mg/ml solution in methanol. […]

The test system of experiment [1] is spontaneously hypertensive rats. Nature of the experiment: Hypotensive activity: mean arterial blood pressure in conscious cannulated spontaneously hypertensive rats, intravenous. Conditions: for Peak Mean Arterial Blood Pressure: spontaneously hypertensive rats, intravenous. It is filed as in vivo.
From the text: Under ether anesthesia, Weeks type cannulas (Peterson Technics) were surgically implanted in the abdominal aorta and vena cave of spontaneously hypertensive rats (Taconic Farms, Germantown, NY) and passed subcutaneously to the back of the neck where they were exteriorized. The cannulas were filled with saline, plugged and the rats returned to single cages where they were allowed food and water ad libitum.
At least three days following implantation of the cannulas, the rats were weighed and placed in Broome style restraining cages. The plug was removed from the aortic catheter which was connected to an arterial pressure transducer (Statham P23ID) using PE 100 polyethylene tubing and a stepdown connector fabricated from stainless steel hypodermic tubing. Mean arterial blood pressure was obtained by electrical damping of the pulse pressure channel. Heart rate was obtained from a tachograph triggered by the pulse pressure channel. All parameters were monitored on a Grass physiological recorder (Model 7).
The plug was removed from the vena cava catheter and a PE 20 polyethylene tubing extension was added using a piece of stainless steel hypodermic tubing. The other end was terminated with a 27 G needle and one ml syringe.
All drugs were dissolved in saline or a mixture of ethanol and saline (25:75V:V) such that the volume injected intravenously was 0.1 ml/100 g body weight. All drugs were flushed in with 0.2 ml saline. Blood pressure was continually monitored both before and after introduction of the test compound.
The mark [2] stands for this setting: 1000 uM substrate concentration.

Structures can show the parent of a compound that is named as a salt. Where two headings read alike, the source gives them in different places.

For orientation: IC50 means the concentration that gives 50% inhibition. Higher therefore signals weaker potency in that assay.

T1 sequence (P00592 23-146): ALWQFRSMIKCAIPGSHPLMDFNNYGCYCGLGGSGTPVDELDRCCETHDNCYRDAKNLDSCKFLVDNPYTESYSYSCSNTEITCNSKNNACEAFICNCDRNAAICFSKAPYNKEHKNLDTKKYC

“3-((3-(Acetyloxy)-4-(hexadecyloxy)-butyl)-thio)-N,N,N-trimethyl-1-propanaminium, chloride [Example 69]”: the Ic50 on porcine pancreatic PLA2 (2 nM substrate concentration) turned out to be 2.8 µg/mL; on porcine pancreatic PLA2 (10 uM substrate concentration) it was 11.52 ± 10.58 µg/mL; on porcine pancreatic PLA2 (100 uM substrate concentration), 45.56 ± 23.60 µg/mL. The “Percent Inhibition at 10 ug/ml” value on porcine pancreatic PLA2 (2 nM substrate concentration) turned out to be 77%; at porcine pancreatic PLA2 (10 uM substrate concentration), 55.3 ± 16.5%; on porcine pancreatic PLA2 (100 uM substrate concentration) it was 23%.
For `CCCCCCCCCCCCCCCCOCC(CCS(=O)(=O)CCC[N+](C)(C)C)OC(C)=O.[Cl-]` (stereo not shown) [3-((3-(Acetyloxy)-4-(hexadecyloxy)butyl)sulfonyl)-N,N,N-trimethyl-1-propanaminium chloride], the “reduced the blood pressure in the spontaneously hypertensive rat” value in experiment [1] (dose of 10 mg/kg (iv), value is a reduction) worked out at 20 mm Hg.
`CCCCCCCCCCCCCCCCOCC(COP(=O)([O-])Oc1cccc(C[N+](C)(C)C)c1)OC(C)=O` (stereo not shown) [3-(((2-(Acetyloxy)-3-(hexadecyloxy)propoxy)hydroxyphosphinyl)oxy)-N,N,N-trimethylbenzenemethanaminium, hydroxide inner salt]: the “Peak Mean Arterial Blood Pressure” value in experiment [1] (dose 0.1 ug/kg) is recorded as -10.4 mm,Hg; in experiment [1] (dose 0.3 ug/kg), -16.3 mm,Hg; in experiment [1] (dose 1.0 ug/kg) it was -37.2 mm,Hg; in experiment [1] (dose 3.0 ug/kg), -83.9 mm,Hg; in experiment [1] (dose 10.0 ug/kg), -91.0 mm,Hg.
As for `CCCCCCCCCCCCCCCCOCC(COP(=O)([O-])OC(C)C[N+](C)(C)C)OC(C)=O` (stereo not shown) [7-(Acetyloxy)-4-hydroxy-N,N,N,2-tetramethyl-3,5,9-trioxa-4-phosphapentacosan-1-aminium, 4-oxide, hydroxide, inner salt], the “Peak Mean Arterial Blood Pressure” value was -17.4 mm,Hg in experiment [1] (dose 0.3 ug/kg); -40.2 mm,Hg in experiment [1] (dose 1.0 ug/kg); -88.8 mm,Hg in experiment [1] (dose 3.0 ug/kg); -96.5 mm,Hg in experiment [1] (dose 10.0 ug/kg); -103.4 mm,Hg in experiment [1] (dose 30.0 ug/kg).
`CCCCCCCCCCCCCCCCOCC(COP(=O)([O-])OCC(c1ccccc1)[N+](C)(C)C)OC(C)=O` (stereo not shown) [7-(Acetyloxy)-4-hydroxy-N,N,N-trimethyl-1-phenyl-3,5,9-trioxa-4-phosphapentacosan-1-aminium, 4-oxide hydroxide inner salt]: the “Peak Mean Arterial Blood Pressure” value in experiment [1] (dose 10.0 ug/kg) is given as -59.0 mm,Hg.
For the molecule `CCCCCCCCCCCCCCc1cccc(OCC(COP(=O)([O-])OCC(C)[N+](C)(C)C)OC(C)=O)c1` (stereo not shown) [7-Hydroxy-N,N,N-trimethyl-2-oxo-4-((3-tetradecylphenoxy)methyl)3,6,8-trioxa-7-phosphaundecan-10-aminium, 7-oxide, hydroxide, inner salt], the “Peak Mean Arterial Blood Pressure” value in experiment [1] (dose 0.03 ug/kg) was -9.8 mm,Hg; in experiment [1] (dose 0.1 ug/kg) it was -17.6 mm,Hg; in experiment [1] (dose 0.3 ug/kg), -78.7 mm,Hg; in experiment [1] (dose 1.0 ug/kg) it was -95.9 mm,Hg.
With `CCCCCCCCCCCCCCCCOCC(COP(=O)([O-])OCC(C)[N+](C)(C)C)OC(C)=O` (stereo not shown) [8-(Acetyloxy)-5-hydroxy-N,N-N-trimethyl-4,6,10-trioxa-5-phosphahexacosan-2-aminium, 5-oxide, hydroxide, inner salt], the “Peak Mean Arterial Blood Pressure” value is -16.4 mm,Hg in experiment [1] (dose 0.03 ug/kg); -36.3 mm,Hg in experiment [1] (dose 0.1 ug/kg); -58.6 mm,Hg in experiment [1] (dose 0.3 ug/kg); -103.1 mm,Hg in experiment [1] (dose 1.0 ug/kg); -118.3 mm,Hg in experiment [1] (dose 3.0 ug/kg).
Regarding `CCCCCCCCCCCCCCCCOCC(CCSCCCN(C)C)OC(C)=O` (stereo not shown) [Example 67, 4-((3-(Dimethylamino)propyl)thio)-1-(hexadecyloxy)-2-butanol, acetate], the IC50 at porcine pancreatic PLA2 (2 nM substrate concentration) is 18.6 µM; on porcine pancreatic PLA2 (10 uM substrate concentration), 45.7 µM; on porcine pancreatic PLA2 (100 uM substrate concentration), 96.7 µM; on porcine pancreatic PLA2 (500 uM substrate concentration), 226 µM. Moreover, the inhibition at 10 µg/mL was found to be 54% at porcine pancreatic PLA2 (2 nM substrate concentration) and 33 ± 12.7% at porcine pancreatic PLA2 (10 uM substrate concentration).
As for `CCCCCCCCCCCCCCCCOCC(CCSCCC[N+](C)(C)C)OC(C)=O` (stereo not shown) [Example 68, 3-((3-(Acetyloxy)-4-(hexadecyloxy)-butyl)-thio)-N,N,N-trimethyl-1-propanaminium, iodide], the IC50 on porcine pancreatic PLA2 (2 nM substrate concentration) was 2.52 µM; at porcine pancreatic PLA2 (10 uM substrate concentration), 10.1 µM; against porcine pancreatic PLA2 (100 uM substrate concentration) it was 20 µM; against porcine pancreatic PLA2 (500 uM substrate concentration), 96.8 µM; at porcine pancreatic PLA2 (setting [2]) it was 137 µM. Moreover, the inhibition at 10 µg/mL stood at 96.6 ± 4.6% at porcine pancreatic PLA2 (2 nM substrate concentration); 63.2 ± 13.5% at porcine pancreatic PLA2 (10 uM substrate concentration); 45 ± 13.6% at porcine pancreatic PLA2 (100 uM substrate concentration); 15.4 ± 5.7% on porcine pancreatic PLA2 (500 uM substrate concentration); 8.2 ± 4.6% at porcine pancreatic PLA2 (setting [2]).
